Assay results taken from paper PMC7806715, “Discovery of small molecules targeting the tandem tudor domain of the epigenetic factor UHRF1 using fragment-based ligand discovery” (Scientific Reports, 2021).

Experiments:
[1] = biological target: T1, His6-TTD (UHRF1 tandem Tudor domain) vs. H3K9me3 peptide (Homo sapiens, UniProt Q96T88); assay: TR-FRET assay: His6-TTD interaction with H3K9me3 peptide; type: biochemical; settings: EC50 ± S.E.M., n=3; highest concentration tested 1 mM
T1 construct: Using the isolated His6-TTD (aa 123–283) we performed a thermal shift assay; made in house; host or cells: Rosetta (DE3) E. coli, pMCSG7
T1 sequence (Q96T88 123-283): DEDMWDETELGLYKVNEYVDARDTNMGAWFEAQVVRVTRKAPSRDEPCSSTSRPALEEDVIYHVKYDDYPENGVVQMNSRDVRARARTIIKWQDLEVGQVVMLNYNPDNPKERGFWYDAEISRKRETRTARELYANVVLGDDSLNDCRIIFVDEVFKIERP
Method: Finally, the fragment library was screened using a TR-FRET assay to find inhibitors that block the interaction of His6-TTD with H3K9me3 peptide. In this assay, an anti-His6-antibody labeled with Tb cryptate binds to His6-TTD while a streptavidin-d2 acceptor binds to a biotinylated histone H3K9me3 peptide. The binding between His6-TTD and H3K9me3 peptide was measured by the ratio of 665 nm fluorescence (from the d2 acceptor) to 620 nm fluorescence (from the Tb cryptate donor) (Fig. 1D).
The fragment screen was carried out on low volume 384-well white plates (Corning 4512) and the assay was performed at room temperature. […] After 1 h of incubation, the fluorescent signals at 665 nm and 620 nm of each plate were measured by the Tecan Infinite M1000 plate reader (excitation 340 nm, 60 µs lag time, and 500 µs integration time) and the TR-FRET signal was calculated by the ratio of 665 nm/620 nm fluorescent signal. For the fragment screen, on seven of the library plates there were 32-wells of DMSO control, while there were 8-wells of DMSO control in the last plate. […] The only difference was that the final concentration of His6-TTD-PHD was 200 nM, biotin-H3K9me3 peptide was 200 nM for the His6-TTD-PHD TR-FRET assay, while the final concentration of His6-UHRF1-FL was 200 nM and biotin-H3K9me3 peptide was 100 nM for the His6-UHRF1-FL TR-FRET assay. The buffer pH was 7.5 for the His6-TTD-PHD and His6-UHRF1-FL assays.

[2] = biological target: T2, N-UHRF1 vs. C-UHRF1 (Homo sapiens, UniProt Q96T88); assay: AlphaScreen assay: N-UHRF1 interaction with C-UHRF1 (TTD:PBR); type: biochemical; settings: for AlphaScreen (N-UHRF1 vs. C-UHRF1) EC50 / EC50: EC50 ± S.E.M., n=3, highest concentration tested 1 mM; for inhibition of N-UHRF1:C-UHRF1 interaction by peptide (in words): peptide (1-20) at 50 µM (Fig. S1)
T2 construct: biotinylated-AviTag-N-UHRF1 (containing UBL and TTD, aa 1–285); made in house; host or cells: Rosetta (DE3) E. coli; pMCSG51 (N-UHRF1), pMCSG7 (FLAG-C-UHRF1)
T2 sequence (Q96T88 1-285): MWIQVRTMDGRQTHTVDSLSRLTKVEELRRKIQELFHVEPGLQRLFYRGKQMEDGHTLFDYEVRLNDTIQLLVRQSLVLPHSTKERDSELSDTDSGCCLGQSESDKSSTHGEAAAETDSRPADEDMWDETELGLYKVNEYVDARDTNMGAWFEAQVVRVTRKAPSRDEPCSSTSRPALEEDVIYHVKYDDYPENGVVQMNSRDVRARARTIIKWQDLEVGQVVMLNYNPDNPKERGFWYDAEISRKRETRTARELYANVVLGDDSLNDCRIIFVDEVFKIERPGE
From the text: We next turned our attention to screens that reported on functional effects of fragment binding to UHRF1-TTD. UHRF1 can assume two functionally distinct conformations that are favored by different intra-molecular interactions[15],[32]–[35]. UHRF1 assumes a ‘closed’ conformation with diminished E3 ligase activity when the TTD domain interacts with the internal PBR[32]–[35]. To identify compounds that block this internal TTD:PBR interaction, we developed an assay using AlphaScreen (Amplified Luminescent Proximity Homogeneous Assay, Perkin Elmer) technology that detects the interaction between biotinylated-AviTag-N-UHRF1 (containing UBL and TTD, aa 1–285) and FLAG-C-UHRF1 (containing SRA, RING E3 domains and PBR, aa 414–793) (Fig. 1A,C). […] The signal change in each well was calculated relative to DMSO controls on each plate.
The fragment screen was carried out on low volume 384-well white plates (Corning 4512) and the assay was performed at room temperature. First, 5 µl of AlphaScreen buffer (50 mM HEPES, pH = 6.5, 150 mM NaCl, 0.1% Triton X-100, 1 mM DTT) was dispensed by multidrop combi microplate dispenser (Thermo Scientific) and 300 nl of chemical fragment stock (10 mM in DMSO) was added to each well by pintool using Tecan Freedom Evo liquid handler. Next, 3 µl of AlphaScreen reagent mix containing 768 nM of Biotinylated-His-Avitag-N-UHRF1, 768 nM of FLAG-C-UHRF1, 40 µg/ml streptavidin donor beads, and 40 µg/ml Anti-FLAG conjugated acceptor beads (PerkinElmer) was added to each well by multidrop. The final concentration of FLAG-C-UHRF1 was 300 nM, Biotinylated-His-Avitag-N-UHRF1 was 300 nM, Donor/acceptor beads each was 15 µg/ml. In this assay, the biotinylated-AviTag-N-UHRF1 binds to streptavidin-coated donor beads while the FLAG-C-UHRF1 interacts with the anti-FLAG antibody-coated acceptor beads. The final compound concentration was 360 µM. After 1 h of incubation, the AlphaScreen signal of each plate was measured with a Tecan Infinite M1000 plate reader, which uses a high-power laser (680 nm, 750 mW) as the excitation light source for the donor beads and the AlphaScreen filter was used to detect the emission between 520 and 620 nm from the acceptor beads. For the dose-dependent assays for SAR, the final concentrations of N-UHRF1, C-UHRF1, donor, and acceptor beads were the same as fragment screen. The only differences were that the phosphate buffer was used (50 mM sodium phosphate, pH = 7, 150 mM NaCl, 1 mM DTT, and 0.1% Triton-X-100) and the final volume was 10 µL. For the fragment screen, on seven of the library plates there were 32-wells of DMSO control, while there were 8-wells of DMSO control in the last plate.

[3] = biological target: T3, UHRF1-TTD (Homo sapiens, UniProt Q96T88); assay: Thermal shift assay (TSA) of TTD; type: binding; settings: for ΔTm at 500 µM / TSA (ΔTm) at 500 μM: compound at 500 μM, untagged TTD, 150 mM NaCl, mean ± S.D., n=3; for ΔTm at 200 µM: fragment screen, His6-TTD, final compound concentration 200 µM, 300 mM NaCl, read-out: ThermoFluor (ΔTm), fragment screen
T3 construct: Using the isolated His6-TTD (aa 123–283) we performed a thermal shift assay; His6 (N, cleaved yes); made in house; host or cells: Rosetta (DE3) E. coli, pMCSG7
T3 sequence (Q96T88 123-283): T1 sequence (Q96T88 123-283)
Method: We used three different assays in parallel to screen a ~ 2300-fragment library to identify hits that bind to TTD or inhibit its activities. The first screening method was a direct binding assay, which generally serves as the basis for most fragment screening. Using the isolated His6-TTD (aa 123–283) we performed a thermal shift assay (TSA) to determine the change in melting temperature upon fragment binding. The change in protein melting temperature (ΔTm) caused by each fragment was calculated by comparison to the DMSO controls on the same plate.
The fragment screen was carried out on LightCycler 480 Multiwell Plates 384 (Roche). The TSA mix contains 0.15 mg/ml of His6-TTD, 10 × of SYPRO Orange dye (ThermoFisher) in the TSA buffer (50 mM sodium phosphate, pH = 7, 300 mM NaCl). During the screen, 5 µl of TSA mix was dispensed into each well, and 100 nl of chemical fragments stock (10 mM in DMSO) was added to each well by pintool using Tecan Freedom Evo liquid handler to make the final compound concentration 200 µM. After 1 h of incubation at room temperature, the increase of fluorescence at 580 nm (excitation 465 nm) during the 20–90 degree melting (0.04 °C/s) was measured by LightCycler 480 Instrument II (Roche). For the fragment screen, on seven of the library plates there were 32-wells of DMSO control, while there were 8-wells of DMSO control in the last plate. […] Using un-tagged TTD for TSA provide closer resemblance to the native state of TTD. The lower salt concentration (150 mM NaCl) also allowed better comparison across three different assays during the dose-dependent SAR studies as both AlphaScreen and TR-FRET assay also use buffers containing 150 mM NaCl.

[4] = system: N-UHRF1 vs. USP7-UBL1/2; assay: AlphaScreen assay N-UHRF1 vs. USP7-UBL1/2 (other screen); type: biochemical; settings: fragment screen
From the text: (§1) F1957-0227 was identified as a hit in two other AlphaScreen assays (N-UHRF1 vs. USP7-UBL1/2 and UHRF1-SRA domain vs. DNMT1-RFTS domain) and in three TSAs against unrelated protein targets (USP7-UBL1/2, UHRF1-SRA domain, and DNMT1-RFTS domain); we concluded that F1957-0227 behaves as a pan-assay interference compound (PAINS)[53] and is thus not suitable for follow-up.

[5] = biological target: T4, UHRF1-SRA domain vs. DNMT1-RFTS domain (Homo sapiens, UniProt P26358+Q96T88); assay: AlphaScreen assay UHRF1-SRA domain vs. DNMT1-RFTS domain (other screen); type: biochemical; settings: fragment screen
T4 construct: UHRF1-SRA domain vs. DNMT1-RFTS domain
From the text: as §1

[6] = biological target: USP7-UBL1/2 (Homo sapiens, UniProt Q93009); assay: TSA against USP7-UBL1/2; type: binding; settings: fragment screen
From the text: as §1

[7] = biological target: T5, UHRF1-SRA domain (Homo sapiens, UniProt Q96T88); assay: TSA against UHRF1-SRA domain; type: binding; settings: fragment screen
T5 construct: unrelated protein targets (USP7-UBL1/2, UHRF1-SRA domain, and DNMT1-RFTS domain)
T5 sequence (Q96T88 419-582 limits assumed): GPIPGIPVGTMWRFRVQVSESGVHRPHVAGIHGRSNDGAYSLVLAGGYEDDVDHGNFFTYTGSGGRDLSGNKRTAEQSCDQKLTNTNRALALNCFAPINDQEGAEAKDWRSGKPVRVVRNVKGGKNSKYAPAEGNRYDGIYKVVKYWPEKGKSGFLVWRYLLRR
From the text: as §1

[8] = biological target: T6, DNMT1-RFTS domain (Homo sapiens, UniProt P26358); assay: TSA against DNMT1-RFTS domain; type: binding; settings: fragment screen
T6 construct: unrelated protein targets (USP7-UBL1/2, UHRF1-SRA domain, and DNMT1-RFTS domain)
From the text: as §1

USP7-UBL1/2, sequence (Q93009 560-776 limits assumed): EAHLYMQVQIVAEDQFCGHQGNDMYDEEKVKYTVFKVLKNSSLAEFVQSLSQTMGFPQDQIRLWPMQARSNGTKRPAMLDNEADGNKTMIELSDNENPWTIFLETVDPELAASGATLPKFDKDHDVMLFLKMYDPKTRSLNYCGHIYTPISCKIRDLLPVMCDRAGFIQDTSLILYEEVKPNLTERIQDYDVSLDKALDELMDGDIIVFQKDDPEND
T6 sequence (P26358 400-533 limits assumed): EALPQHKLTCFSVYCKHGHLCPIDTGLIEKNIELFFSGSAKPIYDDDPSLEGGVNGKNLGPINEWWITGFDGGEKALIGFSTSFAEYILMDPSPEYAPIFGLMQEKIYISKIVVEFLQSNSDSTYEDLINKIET
T4 sequence (P26358 400-533 limits assumed, one chain of several): as the sequence (P26358 400-533 limits assumed) above

Molecule	EC50 [1] [µM]	EC50 [2] [µM]	TSA (ΔTm) at 500 μM [3] [°C]	other results
c1cnc2c(c1)CCCC2 [Compound 6, 5,6,7,8-tetra-hydro-quinoline]	> 500	–	–	AlphaScreen (N-UHRF1 vs. C-UHRF1) EC50 [2]: 281.7 ± 227.7 µM; ΔTm at 500 µM [3]: 0.21 ± 0.06 °C
c1cnc2c(c1)CCCN2 [Compound 2]	109 ± 18.2	164 ± 33	0.75 ± 0.02	–
H3K4me3 peptide: histone H3 (1-20) peptide trimethylated at Lys4, negative control [reference compound]	–	–	–	inhibition of N-UHRF1:C-UHRF1 interaction by peptide (in words) [2]: not
c1cnc2c(c1)NCCN2 [Compound 7, 1,2,3,4-tetrahydropyrido[2,3-b]pyrazine]	> 500	–	–	AlphaScreen (N-UHRF1 vs. C-UHRF1) EC50 [2]: 379.8 ± 176.0 µM; ΔTm at 500 µM [3]: 0.19 ± 0.06 °C
Cc1cc(C)nc(C)c1 [Compound 15]	47.2 ± 4.9	> 500	1.11 ± 0.06	–
Cc1cc(C)c2c(n1)NCCC2 [Compound F1957-0088]	–	–	–	ΔTm at 500 µM [3]: 1.52 ± 0.09 °C; ΔTm at 200 µM [3]: 1.74 °C
Nc1ncc(Br)c2cc[nH]c12 [Compound F1957-0227]	–	–	–	ΔTm at 200 µM [3]: 2.58 °C; hit call in AlphaScreen N-UHRF1 vs. USP7-UBL1/2 [4]: hit; hit call in AlphaScreen UHRF1-SRA domain vs. DNMT1-RFTS domain [5]: hit; hit call in TSA against USP7-UBL1/2 [6]: hit; hit call in TSA against UHRF1-SRA domain [7]: hit; hit call in TSA against DNMT1-RFTS domain [8]: hit
Cc1ccnc(Cl)c1 [Compound 9]	–	–	–	TR-FRET (TTD vs. H3K9me3) EC50 [1]: No inhibition; AlphaScreen (N-UHRF1 vs. C-UHRF1) EC50 [2]: No inhibition
Cc1c(Br)cnc2c1CCCN2 [Compound 3]	58.5 ± 8.4	75.7 ± 14.4	0.1 ± 0.06	–
Cc1cc(C)nc(N)c1 [Compound 12]	51.9 ± 8.1	21.3 ± 3.5	1.59 ± 0.06	–
H3K9me3 peptide: histone H3 (1–20) peptide trimethylated at Lys9, TTD ligand [reference compound]	–	–	–	inhibition of N-UHRF1:C-UHRF1 interaction by peptide (in words) [2]: could inhibit
Cc1ccnc(N)c1 [Compound 8]	238 ± 89.1	52.6 ± 6.9	0.66 ± 0.09	–
